*1 amine or outer side, *2 acyl side, *3 side chain or, on linkers, in order; H or OH if unused. Where a SMILES comes first, the peptide text is derived from it. Side-chain parts run from the residue outwards. [ ]: non-standard residue; d: D form. The star is where a group is joined. Isobutyryl(2-(3-CN-5-F-Ph)) = CC(C)(C(=O)*)c1cc(F)cc(C#N)c1; C20 diacid = O=C(O)CCCCCCCCCCCCCCCCCCC(=O)*; αMePhe(2-F) = C[C@](N)(Cc1ccccc1F)C(=O)O; γGlu = O=C(O)[C@H](CCC(=O)[*:2])N[*:1]; X43 = O=C1CCC(C(=O)*)(c2ccccc2)CN1; X82 = CC(C)(C(=O)*)n1cc(N)cn1; αMeL = CC(C)C[C@](C)(N)C(=O)O; Orn = NCCC[C@H](N)C(=O)O; AEEA = NCCOCCOCC(=O)O; Aib = CC(C)(N)C(=O)O; βAla = NCCC(=O)O
How the values were obtained:
Assay type in all cases: cell-based
GLP-1 receptor [1] = target: T1, GLP-1 receptor (Homo sapiens, UniProt P43220); assay: PathHunter β-arrestin assay, GLP-1 receptor; design: host or cells: PathHunter CHO-K1 GLP1R β-Arrestin Cell Line; settings: β-arrestin-2 recruitment, PathHunter CHO-K1 GLP1R β-Arrestin Cell Line, 90 min at 37° C.; normalized to GLP-1; read-out: GLP-1R β Arrestin EC50
T1 sequence (P43220 24-463): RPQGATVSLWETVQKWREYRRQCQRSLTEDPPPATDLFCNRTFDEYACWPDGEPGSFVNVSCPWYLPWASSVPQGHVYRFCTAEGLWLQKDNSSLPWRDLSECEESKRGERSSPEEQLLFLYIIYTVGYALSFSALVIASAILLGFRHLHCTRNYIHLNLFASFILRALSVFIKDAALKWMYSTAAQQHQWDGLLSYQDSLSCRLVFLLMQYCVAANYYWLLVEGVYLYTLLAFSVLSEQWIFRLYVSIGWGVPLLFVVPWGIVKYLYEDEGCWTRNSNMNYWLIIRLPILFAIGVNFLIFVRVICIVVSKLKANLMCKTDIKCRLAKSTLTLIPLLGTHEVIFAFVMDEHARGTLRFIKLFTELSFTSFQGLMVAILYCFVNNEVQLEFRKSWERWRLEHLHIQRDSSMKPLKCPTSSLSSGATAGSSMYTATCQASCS

GIP receptor [2] = target: T2, GIP receptor (Homo sapiens, UniProt P48546); assay: PathHunter β-arrestin assay, GIP receptor; design: host or cells: PathHunter CHO-K1 GIPR β-Arrestin Cell Line; settings: β-arrestin-2 recruitment, PathHunter CHO-K1 GIPR β-Arrestin Cell Line, 90 min at 37° C.; normalized to GIP; read-out: GIPR β Arrestin EC50
T2 sequence (P48546 22-466): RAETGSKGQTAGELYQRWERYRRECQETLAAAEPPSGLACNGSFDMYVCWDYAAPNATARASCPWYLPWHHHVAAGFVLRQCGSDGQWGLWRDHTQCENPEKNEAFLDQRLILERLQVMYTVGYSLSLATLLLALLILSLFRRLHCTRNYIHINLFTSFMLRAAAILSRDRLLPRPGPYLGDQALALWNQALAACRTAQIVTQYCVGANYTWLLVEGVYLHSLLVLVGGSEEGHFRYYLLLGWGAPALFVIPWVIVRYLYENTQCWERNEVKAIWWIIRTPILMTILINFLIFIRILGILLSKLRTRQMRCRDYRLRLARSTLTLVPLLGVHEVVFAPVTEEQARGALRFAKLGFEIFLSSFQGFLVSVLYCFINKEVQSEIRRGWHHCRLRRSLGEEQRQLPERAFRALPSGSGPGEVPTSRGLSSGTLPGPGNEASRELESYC

GIP receptor [3] = target: T2, GIP receptor; assay: HitHunter cAMP assay, GIP receptor; settings: for EC50: CHO cells stably expressing GIP receptor, cAMP accumulation, 30 min, read-out: EC50 GIP-1R; for Emax: CHO cells, cAMP, normalized to maximum signal from GIP (high) and DMSO (low), read-out: Emax GIP-1R
GLP-1 receptor [4] = target: T1, GLP-1 receptor; assay: HitHunter cAMP assay, GLP-1 receptor; settings: for EC50: CHO cells stably expressing human GLP-1 receptor, cAMP accumulation, 30 min, read-out: EC50 GLP-1R; for Emax: CHO cells, cAMP, normalized to maximum signal from GLP-1 (high) and DMSO (low), read-out: Emax GLP-1R

| SMILES | EC50 (GLP-1 receptor [1]) | EC50 (GIP receptor [2]) | EC50 (GIP receptor [3]) | Emax (GIP receptor [3]) | EC50 (GLP-1 receptor [4]) | Emax (GLP-1 receptor [4]) |
| --- | --- | --- | --- | --- | --- | --- |
| CC[C@H](C)[C@H](NC(=O)[C@H](CO)NC(=O)[C@H](CCCCNC(=O)COCCOCCNC(=O)COCCOCCNC(=O)CC[C@H](NC(=O)CCCCCCCCCCCCCCCCCCC(=O)O)C(=O)O)NC(=O)[C@H](CC(=O)O)NC(=O)[C@H](CO)NC(=O)[C@@H](NC(=O)[C@H](Cc1ccccc1)NC(=O)[C@@H](NC(=O)CNC(=O)[C@H](CCC(=O)O)NC(=O)CCNC(=O)C1(c2ccccc2)CCC(=O)NC1)[C@@H](C)O)[C@@H](C)O)C(=O)N[C@@H](Cc1ccc(O)cc1)C(=O)N[C@@H](CC(C)C)C(=O)N[C@@H](CC(=O)O)C(=O)N[C@@H](CCCCN)C(=O)N[C@@H](CCC(N)=O)C(=O)N[C@@H](C)C(=O)N[C@@H](C)C(=O)NC(C)(C)C(=O)N[C@@H](CCC(=O)O)C(=O)N[C@@H](Cc1ccccc1)C(=O)N[C@H](C(=O)N[C@@H](CC(N)=O)C(=O)N[C@@H](Cc1c[nH]c2ccccc12)C(=O)N[C@@H](CC(C)C)C(=O)N[C@@H](CC(C)C)C(=O)N[C@@H](C)C(=O)NCC(=O)NCC(=O)N1CCC[C@H]1C(=O)N[C@@H](CO)C(=O)N[C@@H](CO)C(=O)NCC(=O)N[C@@H](C)C(=O)N1CCC[C@H]1C(=O)N1CCC[C@H]1C(=O)N1CCC[C@H]1C(=O)N[C@@H](CO)C(N)=O)C(C)C (stereo partly drawn) [Compound 153] ({X43-βAla}-EGTFTSDK([AEEA-AEEA-γGlu-C20 diacid])SIYLDKQAA[Aib]EFVNWLLAGGPSSGAPPPS-NH2) | > 1000 nM | > 1000 nM | 1 to 10 nM | 105% | 0.1 to 1 nM | 101% |
| CC[C@H](C)[C@H](NC(=O)[C@H](CC(C)C)NC(=O)[C@H](Cc1c[nH]c2ccccc12)NC(=O)[C@H](CCC(N)=O)NC(=O)[C@@H](NC(=O)[C@H](Cc1ccccc1)NC(=O)[C@H](C)NC(=O)[C@H](CCCCNC(=O)COCCOCCNC(=O)COCCOCCNC(=O)CC[C@H](NC(=O)CCCCCCCCCCCCCCCCCCC(=O)O)C(=O)O)NC(=O)[C@H](CCC(N)=O)NC(=O)[C@H](C)NC(=O)[C@@H](NC(=O)[C@H](CCCCN)NC(=O)[C@H](CC(=O)O)NC(=O)[C@H](CC(C)C)NC(=O)C(C)(C)NC(=O)[C@@H](NC(=O)[C@H](CO)NC(=O)[C@H](Cc1ccc(O)cc1)NC(=O)[C@H](CC(=O)O)NC(=O)[C@H](CO)NC(=O)[C@@H](NC(=O)[C@H](Cc1ccccc1)NC(=O)[C@@H](NC(=O)CNC(=O)CC[C@H](NC(=O)CCNC(=O)C(C)(C)c1cc(F)cc(C#N)c1)C(=O)O)[C@@H](C)O)[C@@H](C)O)[C@@H](C)CC)[C@@H](C)CC)C(C)C)C(=O)N[C@@H](C)C(=O)NCC(=O)NCC(=O)N1CCC[C@H]1C(=O)N[C@@H](CO)C(=O)N[C@@H](CO)C(=O)NCC(=O)N[C@@H](C)C(=O)N1CCC[C@H]1C(=O)N1CCC[C@H]1C(=O)N1CCC[C@H]1C(=O)N[C@@H](CO)C(N)=O [Compound 110] ({Isobutyryl(2-(3-CN-5-F-Ph))-βAla-γGlu}-GTFTSDYSI[Aib]LDKIAQK([AEEA-AEEA-γGlu-C20 diacid])AFVQWLIAGGPSSGAPPPS-NH2) | > 1000 nM | > 1000 nM | 100 to 1000 nM | 32% | 100 to 1000 nM | 31% |
| CC[C@H](C)[C@H](NC(=O)[C@H](CC(C)C)NC(=O)[C@H](Cc1c[nH]c2ccccc12)NC(=O)[C@H](CCC(N)=O)NC(=O)[C@@H](NC(=O)[C@H](Cc1ccccc1)NC(=O)[C@H](C)NC(=O)[C@H](CCCCNC(=O)COCCOCCNC(=O)COCCOCCNC(=O)CC[C@H](NC(=O)CCCCCCCCCCCCCCCCCCC(=O)O)C(=O)O)NC(=O)[C@H](CCC(N)=O)NC(=O)[C@H](C)NC(=O)[C@@H](NC(=O)[C@H](CCCCN)NC(=O)[C@H](CC(=O)O)NC(=O)[C@H](CC(C)C)NC(=O)C(C)(C)NC(=O)[C@@H](NC(=O)[C@H](CO)NC(=O)[C@H](Cc1ccc(O)cc1)NC(=O)[C@H](CC(=O)O)NC(=O)[C@H](CO)NC(=O)[C@@H](NC(=O)[C@H](Cc1ccccc1)NC(=O)[C@@H](NC(=O)CNC(=O)[C@H](CCC(=O)O)NC(=O)CCNC(=O)C(C)(C)n1cc(N)cn1)[C@@H](C)O)[C@@H](C)O)[C@@H](C)CC)[C@@H](C)CC)C(C)C)C(=O)N[C@@H](C)C(=O)NCC(=O)NCC(=O)N1CCC[C@H]1C(=O)N[C@@H](CO)C(=O)N[C@@H](CO)C(=O)NCC(=O)N[C@@H](C)C(=O)N1CCC[C@H]1C(=O)N1CCC[C@H]1C(=O)N1CCC[C@H]1C(=O)N[C@@H](CO)C(N)=O [Compound 157] ({X82-βAla}-EGTFTSDYSI[Aib]LDKIAQK([AEEA-AEEA-γGlu-C20 diacid])AFVQWLIAGGPSSGAPPPS-NH2) | > 1000 nM | > 1000 nM | 10 to 100 nM | 106% | 0.1 to 1 nM | 100% |
| CC[C@H](C)[C@H](NC(=O)[C@H](CO)NC(=O)[C@H](Cc1ccc(O)cc1)NC(=O)[C@H](CC(=O)O)NC(=O)[C@H](CO)NC(=O)[C@@H](NC(=O)[C@](C)(Cc1ccccc1F)NC(=O)[C@@H](NC(=O)CNC(=O)[C@H](CCC(=O)O)NC(=O)CCNC(=O)C1(c2ccccc2)CNC(=O)C1)[C@@H](C)O)[C@@H](C)O)C(=O)N[C@@H](Cc1ccc(O)cc1)C(=O)N[C@@H](CC(C)C)C(=O)N[C@@H](CC(=O)O)C(=O)N[C@@H](CCCCN)C(=O)N[C@@H](CCC(N)=O)C(=O)N[C@@H](C)C(=O)N[C@@H](C)C(=O)NC(C)(C)C(=O)N[C@@H](CCC(=O)O)C(=O)N[C@@H](Cc1ccccc1)C(=O)N[C@H](C(=O)N[C@@H](CC(N)=O)C(=O)N[C@@H](Cc1c[nH]c2ccccc12)C(=O)N[C@@H](CC(C)C)C(=O)N[C@@H](CC(C)C)C(=O)N[C@@H](C)C(=O)NCC(=O)NCC(=O)N1CCC[C@H]1C(=O)N[C@@H](CO)C(=O)N[C@@H](CO)C(=O)NCC(=O)N[C@@H](C)C(=O)N1CCC[C@H]1C(=O)N1CCC[C@H]1C(=O)N1CCC[C@H]1C(=O)N[C@@H](CO)C(=O)N[C@@H](CCCCNC(=O)COCCOCCNC(=O)COCCOCCNC(=O)CC[C@H](NC(=O)CCCCCCCCCCCCCCCCCCC(=O)O)C(=O)O)C(N)=O)C(C)C (stereo partly drawn) [Compound 142] | < 1000 nM | < 1000 nM | < 0.1 nM | 99% | 0.1 to 1 nM | 99% |
| CC[C@H](C)[C@H](NC(=O)[C@H](CC(C)C)NC(=O)[C@H](Cc1ccc(O)cc1)NC(=O)[C@@H](CCC(=O)O)NC(=O)[C@@H](NC(=O)[C@H](Cc1ccccc1)NC(=O)[C@H](CCC(=O)O)NC(=O)C(C)(C)NC(=O)[C@H](CCC(N)=O)NC(=O)[C@H](C)NC(=O)[C@H](CCCCNC(=O)COCCOCCNC(=O)COCCOCCNC(=O)CC[C@H](NC(=O)CCCCCCCCCCCCCCCCCCC(=O)O)C(=O)O)NC(=O)[C@H](CCCN)NC(=O)[C@H](CC(=O)O)NC(=O)[C@H](CC(C)C)NC(=O)[C@](C)(CC(C)C)NC(=O)[C@@H](NC(=O)[C@H](CO)NC(=O)[C@H](Cc1ccc(O)cc1)NC(=O)[C@H](CC(=O)O)NC(=O)[C@H](CO)NC(=O)[C@@H](NC(=O)[C@](C)(Cc1ccccc1F)NC(=O)[C@@H](NC(=O)CNC(=O)[C@H](CCC(=O)O)NC(=O)CCNC(=O)C(C)(C)c1cc(F)cc(C#N)c1)[C@@H](C)O)[C@@H](C)O)[C@@H](C)CC)[C@@H](C)CC)C(=O)N[C@@H](CCC(=O)O)C(=O)NCC(=O)NCC(=O)N1CCC[C@H]1C(=O)N[C@@H](CO)C(=O)N[C@@H](CO)C(=O)NCC(=O)N[C@@H](C)C(=O)N1CCC[C@H]1C(=O)N1CCC[C@H]1C(=O)N1CCC[C@H]1C(=O)N[C@@H](CO)C(N)=O [Compound 140] ({Isobutyryl(2-(3-CN-5-F-Ph))-βAla}-EGT[αMePhe(2-F)]TSDYSI[αMeL]LD[Orn]K([AEEA-AEEA-γGlu-C20 diacid])AQ[Aib]EFI[dE]YLIEGGPSSGAPPPS-NH2) | > 1000 nM | < 1000 nM | < 0.1 nM | 108% | < 0.1 nM | 104% |

From patent publication US12281149B2, “Modulators of G-protein coupled receptors” (priority 2021, dated 2025)
